Measured values: patent US20210221866A1, “PROTEASE-RESISTANT LIPIDATED GLP-1 ANALOGS” (MEDIMMUNE LIMITED, priority 2015, published 2021)
Read-outs that look alike come from different tables or passages of the source. Numbered stars: 1 amine (or outer) side, 2 acyl side, 3 side chain; on linkers, the order of the positions; unused ones are H or OH. Square brackets hold non-standard residues; d marks the D form. Side chains are listed from the residue outwards. Peptide text beside a SMILES is read from it. * marks the point of attachment. C18 diacid = O=C(O)CCCCCCCCCCCCCCCCC(=O)*; γGlu = O=C(O)[C@H](CCC(=O)[*:2])N[*:1]; αMeF = C[C@](N)(Cc1ccccc1)C(=O)O; αMeK = C[C@](N)(CCCCN)C(=O)O; Lauroyl = CCCCCCCCCCCC(=O)*; αMeS = C[C@](N)(CO)C(=O)O; AEEA = NCCOCCOCC(=O)O; Aib = CC(C)(N)C(=O)O

How the values were obtained:
Type in all cases: cell-based
GLP-1R (INS1e cells) = target: T1, GLP-1R (INS1e cells) (Rattus norvegicus, UniProt P32301); assay: INS1e assay, cAMP activity at GLP-1R
T1 construct: endogenous in cells; host or cells: INS1e cells
T1 sequence (P32301 22-463): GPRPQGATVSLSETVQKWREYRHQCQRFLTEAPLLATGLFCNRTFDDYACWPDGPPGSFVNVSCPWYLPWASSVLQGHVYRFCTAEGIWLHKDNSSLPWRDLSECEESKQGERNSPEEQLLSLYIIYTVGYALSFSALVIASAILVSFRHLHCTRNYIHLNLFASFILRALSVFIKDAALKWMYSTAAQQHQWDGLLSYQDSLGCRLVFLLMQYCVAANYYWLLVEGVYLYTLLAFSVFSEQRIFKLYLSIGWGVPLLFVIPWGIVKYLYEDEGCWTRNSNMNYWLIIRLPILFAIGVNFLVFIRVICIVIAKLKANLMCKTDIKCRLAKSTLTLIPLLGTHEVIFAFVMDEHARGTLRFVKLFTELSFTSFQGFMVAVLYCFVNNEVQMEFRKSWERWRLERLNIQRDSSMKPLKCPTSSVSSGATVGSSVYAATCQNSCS

[1] = target: T2, human glucagon receptor (GCGR) (Homo sapiens, UniProt P47871); assay: cAMP assay, human GCGR cells; details: cAMP activity; second determination (n2); read-out: Primary assay EC50 Gluc-R
T2 construct: expressed in transfected cells; host or cells: HEK293 cells or CHO cells
T2 sequence (P47871 26-477): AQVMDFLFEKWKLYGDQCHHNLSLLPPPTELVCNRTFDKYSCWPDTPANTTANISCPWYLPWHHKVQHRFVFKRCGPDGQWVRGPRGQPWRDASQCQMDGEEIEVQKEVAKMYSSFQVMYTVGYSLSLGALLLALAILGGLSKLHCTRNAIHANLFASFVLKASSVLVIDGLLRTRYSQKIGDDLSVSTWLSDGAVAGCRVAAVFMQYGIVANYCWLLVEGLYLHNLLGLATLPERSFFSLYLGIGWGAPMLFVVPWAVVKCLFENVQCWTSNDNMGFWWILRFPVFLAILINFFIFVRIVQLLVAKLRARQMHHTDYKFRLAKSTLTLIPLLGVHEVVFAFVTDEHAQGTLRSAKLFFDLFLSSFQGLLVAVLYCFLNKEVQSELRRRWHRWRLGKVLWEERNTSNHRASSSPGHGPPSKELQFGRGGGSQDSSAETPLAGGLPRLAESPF
Method in brief: (§1)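 Peptide-stimulated cAMP measured by two-step HTRF after a 30 min room-temperature incubation with receptor-expressing cells (hGLP-1R, hGIPR at 1×10^5 cells/ml; hGCGR at 2×10^5 cells/ml). Duplicate dilutions; EC50 from 4-parameter logistic fit of % Delta F.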

[2] = target: T3, human GLP-1 receptor (GLP-1R) (Homo sapiens, UniProt P43220); assay: cAMP assay, human GLP-1R cells; details: cAMP activity
T3 construct: expressed in transfected cells; host or cells: HEK293 cells or CHO cells
T3 sequence (P43220 24-463): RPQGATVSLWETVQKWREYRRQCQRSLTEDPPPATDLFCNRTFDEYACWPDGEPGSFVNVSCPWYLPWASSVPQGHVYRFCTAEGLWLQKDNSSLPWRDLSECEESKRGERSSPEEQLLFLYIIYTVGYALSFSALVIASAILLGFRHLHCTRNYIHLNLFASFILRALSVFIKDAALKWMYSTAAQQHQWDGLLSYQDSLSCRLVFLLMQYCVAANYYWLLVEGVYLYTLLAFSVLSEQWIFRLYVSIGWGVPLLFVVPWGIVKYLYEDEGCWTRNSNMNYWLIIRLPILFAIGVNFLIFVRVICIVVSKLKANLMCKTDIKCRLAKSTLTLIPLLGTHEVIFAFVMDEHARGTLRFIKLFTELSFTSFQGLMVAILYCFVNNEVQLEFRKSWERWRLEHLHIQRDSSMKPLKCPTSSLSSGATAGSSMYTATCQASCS
Method in brief: as §1

[3] = target: T4, human glucose-dependent insulinotropic peptide receptor (GIPR) (Homo sapiens, UniProt P48546); assay: cAMP assay, human GIPR cells; details: cAMP activity, read-out: Primary assay EC50 GIP-R
T4 construct: expressed in transfected cells; host or cells: HEK293 cells or CHO cells
T4 sequence (P48546 22-466): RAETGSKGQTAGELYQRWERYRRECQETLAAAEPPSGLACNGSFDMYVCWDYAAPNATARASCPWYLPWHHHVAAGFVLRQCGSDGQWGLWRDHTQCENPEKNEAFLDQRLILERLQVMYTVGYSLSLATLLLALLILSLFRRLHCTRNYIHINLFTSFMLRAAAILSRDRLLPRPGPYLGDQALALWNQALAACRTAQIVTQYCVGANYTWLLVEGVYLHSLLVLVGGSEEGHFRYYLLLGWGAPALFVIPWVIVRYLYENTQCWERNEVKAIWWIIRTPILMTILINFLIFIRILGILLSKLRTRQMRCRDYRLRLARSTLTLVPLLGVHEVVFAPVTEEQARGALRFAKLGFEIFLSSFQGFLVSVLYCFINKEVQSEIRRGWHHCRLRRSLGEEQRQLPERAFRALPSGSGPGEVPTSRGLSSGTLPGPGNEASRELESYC
Method in brief: as §1

[4] = Table 8, substituted and mono-lipidated peptides, mean of n1 and n2, read-out: INS1e assay EC50 Mean pM GLP-1R
[5] = first determination (n1), read-out: Primary assay EC50 GLP-1R n1
[6] = mean of n1 and n2, read-out: Mean pM GLP-1R
[7] = second determination (n2), read-out: Primary assay EC50 GLP-1R n2

Row | SMILES | EC50 (GLP-1R (INS1e cells); [4]) [pM] | EC50 [1] [pM] | EC50 [2, 5] [pM] | EC50 [2, 6] [pM] | EC50 [2, 7] [pM] | EC50 ([3]; first determination (n1)) [pM] | EC50 ([3]; second determination (n2)) [pM] | also measured
1 | CCCCCCCCCCCC(=O)N[C@@H](CCC(=O)NCCOCCOCC(=O)NCCOCCOCC(=O)NCCCC[C@H](NC(=O)[C@H](C)NC(=O)[C@@H](NC(=O)[C@H](Cc1ccccc1)NC(=O)[C@H](CCCCNC(=O)COCCOCCNC(=O)COCCOCCNC(=O)CC[C@H](NC(=O)CCCCCCCCCCC)C(=O)O)NC(=O)[C@](C)(CCCCN)NC(=O)[C@H](C)NC(=O)[C@H](C)NC(=O)[C@H](CCC(=O)O)NC(=O)CNC(=O)[C@H](CCC(=O)O)NC(=O)[C@H](CCCCNC(=O)COCCOCCNC(=O)COCCOCCNC(=O)CC[C@H](NC(=O)CCCCCCCCCCC)C(=O)O)NC(=O)[C@H](Cc1ccc(O)cc1)NC(=O)[C@H](CO)NC(=O)[C@](C)(CO)NC(=O)[C@@H](NC(=O)[C@H](CC(=O)O)NC(=O)[C@H](CO)NC(=O)[C@@H](NC(=O)[C@](C)(Cc1ccccc1)NC(=O)[C@H](CO)NC(=O)CNC(=O)[C@H](CCC(=O)O)NC(=O)C(C)(C)NC(=O)[C@@H](N)Cc1c[nH]cn1)[C@@H](C)O)C(C)C)[C@@H](C)CC)C(=O)N[C@H](C(=O)N[C@H](C(=O)N[C@@H](CCC(=O)O)C(=O)NCC(=O)NCC(N)=O)C(C)C)C(C)C)C(=O)O [compound 470] (H-H[Aib]EGS[αMeF]TSDV[αMeS]SYK([AEEA-AEEA-γGlu-Lauroyl])EGEAA[αMeK]K([AEEA-AEEA-γGlu-Lauroyl])FIAK([AEEA-AEEA-γGlu-Lauroyl])VVEGG-NH2; N-terminus assumed) | – | – | – | – | – | – | – | EC50 (GLP-1R (INS1e cells); Table 12, tris-lipidated peptides, mean of n1 and n2, read-out: INS1e assay EC50 Mean pM GLP-1R): 3660 pM
2 | CCCCCCCCCCCCCCCCCC(=O)NCCOCCOCC(=O)NCCOCCOCC(=O)NCCOCCOCC(=O)NCCCC[C@H](NC(=O)[C@H](C)NC(=O)[C@H](C)NC(=O)[C@H](CCC(=O)O)NC(=O)CNC(=O)[C@H](CCC(=O)O)NC(=O)[C@H](CC(C)C)NC(=O)[C@](C)(Cc1ccccc1)NC(=O)[C@H](CO)NC(=O)[C@H](CO)NC(=O)[C@@H](NC(=O)[C@H](CC(=O)O)NC(=O)[C@H](CO)NC(=O)[C@@H](NC(=O)[C@](C)(Cc1ccccc1)NC(=O)[C@H](CO)NC(=O)CNC(=O)[C@H](CCC(=O)O)NC(=O)C(C)(C)NC(=O)[C@@H](N)Cc1c[nH]cn1)[C@@H](C)O)C(C)C)C(=O)N[C@@H](CCC(=O)O)C(=O)N[C@@](C)(Cc1ccccc1)C(=O)N[C@H](C(=O)N[C@@H](C)C(=O)N[C@@](C)(Cc1ccccc1)C(=O)N[C@H](C(=O)N[C@H](C(=O)N[C@@](C)(CCCCN)C(=O)NCC(=O)NCC(N)=O)C(C)C)C(C)C)[C@@H](C)CC [compound 52] | 20 | – | – | – | – | – | – | –
3 | CC[C@H](C)[C@H](NC(=O)[C@](C)(Cc1ccccc1)NC(=O)[C@H](CCC(=O)O)NC(=O)[C@H](CCC(=O)O)NC(=O)[C@H](C)NC(=O)[C@H](C)NC(=O)[C@H](CCC(=O)O)NC(=O)CNC(=O)[C@H](CCC(=O)O)NC(=O)[C@H](CC(C)C)NC(=O)[C@](C)(Cc1ccccc1)NC(=O)[C@H](CO)NC(=O)[C@](C)(CO)NC(=O)[C@@H](NC(=O)[C@H](CC(=O)O)NC(=O)[C@H](CO)NC(=O)[C@@H](NC(=O)[C@](C)(Cc1ccccc1)NC(=O)[C@H](CO)NC(=O)CNC(=O)[C@H](CCC(=O)O)NC(=O)C(C)(C)NC(=O)[C@@H](N)Cc1c[nH]cn1)[C@@H](C)O)C(C)C)C(=O)N[C@@H](C)C(=O)N[C@@](C)(Cc1ccccc1)C(=O)N[C@H](C(=O)N[C@H](C(=O)N[C@@H](CCC(=O)O)C(=O)NCC(=O)NCC(N)=O)C(C)C)C(C)C [compound 44] (H-H[Aib]EGS[αMeF]TSDV[αMeS]S[αMeF]LEGEAAEE[αMeF]IA[αMeF]VVEGG-NH2) | 455 | – | – | 6.7 | – | – | – | –
4 | CCCCCCCCCCCCCCCC(=O)N[C@@H](CCC(=O)NCCCC[C@H](NC(=O)[C@H](CCC(=O)O)NC(=O)[C@](C)(CCCCN)NC(=O)[C@H](C)NC(=O)[C@H](C)NC(=O)[C@H](CCC(=O)O)NC(=O)CNC(=O)[C@H](CCC(=O)O)NC(=O)[C@H](CC(C)C)NC(=O)[C@](C)(Cc1ccccc1)NC(=O)[C@H](CO)NC(=O)[C@](C)(CO)NC(=O)[C@@H](NC(=O)[C@H](CC(=O)O)NC(=O)[C@H](CO)NC(=O)[C@@H](NC(=O)[C@](C)(Cc1ccccc1)NC(=O)[C@H](CO)NC(=O)CNC(=O)[C@H](CCC(=O)O)NC(=O)C(C)(C)NC(=O)[C@@H](N)Cc1c[nH]cn1)[C@@H](C)O)C(C)C)C(=O)N[C@H](C(=O)N[C@@H](C)C(=O)N[C@@](C)(Cc1ccccc1)C(=O)N[C@H](C(=O)N[C@H](C(=O)N[C@@](C)(CCCCN)C(=O)NCC(=O)NCC(N)=O)C(C)C)C(C)C)[C@@H](C)CC)C(=O)O [compound 78] | 346 | – | – | – | – | – | – | EC50 (GLP-1R (INS1e cells); Table 8, substituted and mono-lipidated peptides, replicate n2, read-out: INS1e assay EC50 GLP-1R n2): 346 pM

Further lines, with some results ahead:

Row | EC50 (GLP-1R (INS1e cells); [4]) [pM] | EC50 [1] [pM] | EC50 [2, 5] [pM] | EC50 [2, 6] [pM] | EC50 [2, 7] [pM] | EC50 ([3]; first determination (n1)) [pM] | EC50 ([3]; second determination (n2)) [pM] | SMILES | also measured
5 | – | ≥ 25100 | ≥ 25000 | ≥ 25100 | ≥ 25100 | ≥ 25000 | ≥ 25100 | CC[C@H](C)[C@H](NC(=O)[C@](C)(Cc1ccccc1)NC(=O)[C@H](CCC(=O)O)NC(=O)[C@](C)(CCCCN)NC(=O)[C@H](C)NC(=O)[C@H](C)NC(=O)[C@H](CCC(=O)O)NC(=O)CNC(=O)[C@H](CCC(=O)O)NC(=O)[C@H](CC(C)C)NC(=O)[C@](C)(Cc1ccccc1)NC(=O)[C@H](CO)NC(=O)[C@](C)(CO)NC(=O)[C@@H](NC(=O)[C@H](CC(=O)O)NC(=O)[C@H](CCCCNC(=O)COCCOCCNC(=O)COCCOCCNC(=O)CC[C@H](NC(=O)CCCCCCCCCCCCCCCCC(=O)O)C(=O)O)NC(=O)[C@@H](NC(=O)[C@](C)(Cc1ccccc1)NC(=O)[C@H](CO)NC(=O)CNC(=O)[C@H](CCC(=O)O)NC(=O)C(C)(C)NC(=O)[C@@H](N)Cc1c[nH]cn1)[C@@H](C)O)C(C)C)C(=O)N[C@@H](C)C(=O)N[C@@](C)(Cc1ccccc1)C(=O)N[C@H](C(=O)N[C@H](C(=O)N[C@@](C)(CCCCN)C(=O)NCC(=O)NCC(N)=O)C(C)C)C(C)C [compound 121] (H-H[Aib]EGS[αMeF]TK([AEEA-AEEA-γGlu-C18 diacid])DV[αMeS]S[αMeF]LEGEAA[αMeK]E[αMeF]IA[αMeF]VV[αMeK]GG-NH2; N-terminus assumed) | –
6 | – | ≥ 28000 | 170 | 125 | 77 | ≥ 28000 | ≥ 28000 | CCCCCCCCCCCCCCCCCC(=O)NCCOCCOCC(=O)NCCCC[C@H](NC(=O)[C@@H](NC(=O)[C@@H](NC(=O)[C@](C)(Cc1ccccc1)NC(=O)[C@H](C)NC(=O)[C@@H](NC(=O)[C@](C)(Cc1ccccc1)NC(=O)[C@H](CCC(=O)O)NC(=O)[C@](C)(CCCCN)NC(=O)[C@H](C)NC(=O)[C@H](C)NC(=O)[C@H](CCC(=O)O)NC(=O)CNC(=O)[C@H](CCC(=O)O)NC(=O)[C@H](CC(C)C)NC(=O)[C@](C)(Cc1ccccc1)NC(=O)[C@H](CO)NC(=O)[C@](C)(CO)NC(=O)[C@@H](NC(=O)[C@H](CC(=O)O)NC(=O)[C@H](CO)NC(=O)[C@@H](NC(=O)[C@](C)(Cc1ccccc1)NC(=O)[C@H](CO)NC(=O)CNC(=O)[C@H](CCC(=O)O)NC(=O)C(C)(C)NC(=O)[C@@H](N)Cc1c[nH]cn1)[C@@H](C)O)C(C)C)[C@@H](C)CC)C(C)C)C(C)C)C(=O)NCC(=O)NCC(N)=O [compound 188] | –
